Results on 1 compound are retold here after US10851401B2, “Broth microdilution method for evaluating and determining minimal inhibitory concentration of antibacterial polypeptides” (priority 2016, dated 2020).

Molecules are shown by their SMILES.

The assay concerns Staphylococcus aureus strains including MSSA and MRSA strains. Briefly: Vancomycin in modified BMD method versus standard unsupplemented CA-MHB (FIG. 10). Format: cell-based. As to conditions: comparison of the two media. The method, then:
FIG. 10 depicts vancomycin activity assessed using the modified BMD method in comparison to method with standard CAMHB broth unsupplemented. Various Staphylococcus aureus strains including MSSA and MRSA strains were evaluated.
Standard antibiotic vancomycin was evaluated in the modified BMD method. The MIC50, MIC90 and range were equivalent using standard CA-MHB versus CA-MHB supplemented with horse serum and DTT (FIG. 10).

For the compound `CN[C@H](CC(C)C)C(=O)N[C@H]1C(=O)N[C@@H](CC(N)=O)C(=O)N[C@H]2C(=O)N[C@H]3C(=O)N[C@H](C(=O)N[C@H](C(=O)O)c4cc(O)cc(O)c4-c4cc3ccc4O)[C@H](O)c3ccc(c(Cl)c3)Oc3cc2cc(c3O[C@@H]2O[C@H](CO)[C@@H](O)[C@H](O)[C@H]2O[C@H]2C[C@](C)(N)[C@H](O)[C@H](C)O2)Oc2ccc(cc2Cl)[C@H]1O` [vancomycin], the “MIC50, MIC90 and range, standard CA-MHB versus CA-MHB supplemented with horse serum and DTT” value is given as “equivalent”.
